We go through 1 molecule from patent US20240425457A1, “COMPOSITIONS AND METHODS FOR SUPPRESSING AND/OR TREATING METABOLIC DISEASES AND/OR A CLINICAL CONDITION THEREOF” (CK Biotech Inc., priority 2018, published 2024).

Entries after “also recorded” stand apart in the source; their conditions may differ.

The test system of test [1] is Wnt/β-catenin signaling. In words: Wnt/β-catenin signaling (TOPFlash) reporter luciferase assay in HEK293-TOP cells. The test is classed as cell-based. How it is done: Luciferase reporter assay. HEK293-TOP cells were seeded in 24-well plates. Cells were treated with A3334 at a concentration of 1, 5, and 10 μM for 24 h. Total cell lysates were extracted with 35 μl of 5× Reporter Lysis Buffer per well according to the manufacturer's instructions (Promega). A total of 35 μl of luciferin was added and luciferase activity was measured using a Fluorstar Optima microplate reader.
Wnt/β-catenin signaling reporter luciferase assay. HEK293-TOP cells were seeded were seeded in 96-well plates at a density of 2.5×10^4 cells per well. Cells were treated with individual chemicals at a concentration of 1, 5, 10 µM for 24 h. Total cell lysates were extracted with 25 µl of 5× Reporter Lysis Buffer per well according to the manufacturer's instruction (Promega, Madison, WI). Luciferin (25 µl) was added and luciferase activity was measured using FLUOSTAR (BMG labtech, Offenburg, Germany).

In test [2] the test system is HFD+STZ-induced diabetes mice. In words: HFD-fed and STZ-induced diabetes mice. The test is classed as in vivo. From the text: Animals. The generation of Cxxc5^−/− mice has been described previously. Cxxc5 heterozygous mice were intercrossed for four generations to obtain littermate wild-type and Cxxc5^−/− mice and were maintained on a C57BL/6 background. Six-week-old Cxxc5^+/+ and Cxxc5^−/− mice were fed HFD for 8 weeks. Wild-type male C57BL/6 mice (KOATECH, Seoul, Korea) were fed HFD consisting of 60% calories from fat (Research Diet, D12492) for 8 weeks. To validate that the insulin resistance mouse model was successfully established, fasting glucose levels were assessed with a One Touch Ultra glucometer (LifeScan). Subsequently, each HFD-fed mouse with a fasting glucose level higher than 16.7 mmol/L was orally administered A3334 (25 mg kg^−1), sitagliptin (50 mg kg^−1), or metformin (100 mg kg^−1) each day for 5 days at weeks 8 and 12. After the removal of the drugs, mice were maintained for 3 weeks on the HFD. To monitor pancreas regeneration, six-week-old Cxxc5^+/+ and Cxxc5^−/− mice were fed an HFD as above. After dietary treatment for 4 weeks, the mice were intraperitoneally injected with STZ (50 mg/kg/d) for 1 week and the control group were injected with saline. After 2 weeks, Cxxc5^+/+ mice were administered A3334 (25 mg kg^−1) and sitagliptin (50 mg kg^−1) per day by oral gavage for 4 weeks. For GTT or ITT, mice were injected with D-glucose (1.5 g/kg body weight) after overnight starvation or human insulin (0.75 units/kg body weight) after 4 h starvation, respectively. Tail blood was drawn at 0, 15, 30, 60, 120, 180 min intervals and blood glucose level was measured with a One Touch Ultra glucometer. All mice were maintained under temperature-controlled and light-controlled (standard 12 h light/dark cycle) conditions and provided with food and water ad libitum. All protocols were reviewed and approved by the Institutional Review Board of Severance Hospital, Yonsei University College of Medicine (09-013).
β-Cell and α-cell mass analyses. All of the β-cell, α-cell and the cross-sectional area of all pancreatic tissue were quantified. Total β-cell and α-cell area and total pancreas mass for each animal was calculated as the sum of the determinations from each of the 8-10 segments of pancreas. A total of 10-15 beta cells was counted for each pancreas.
A3334 suppressed diabetes induced by multiple low-dose STZ-induced diabetes. Referring now to FIG. 40A-40G, C57BL/6N mice were induced diabetes by HFD for 8 weeks, and induced diabetes by injection of 50 mpk streptozotosin (STZ) for 1 week. After 2 weeks, A3334 (25 mpk) or SITA (25 mpk) was applied for 4 more weeks, histological analyses of pancreas were done.

On to `COc1ccc2c(c1)/C(=C1/Nc3ccccc3/C1=N\O)C(=O)N2` [Compound A3334, 5-Methoxyindirubin-3′-oxime], for which, in test [1], the “Wnt/β-catenin (TOPFlash) reporter activity” value was “dose-dependent increment of the TOPFlash reporter activity”. In addition, in test [2], the body weight entry is “slightly increased” and the “proliferative status of β-cells (PCNA+)” value was “exhibited normal proliferative status after the A3334 treatment”. Further, the “glucose tolerance test and insulin tolerance test” value in test [2] (4 weeks p.o.) is “improved the results from the glucose tolerance test (GTT) and insulin tolerance test (ITT)”. Further, the “blood / fasting glucose level” value in test [2] (A3334 25 mpk, SITA 25 mpk, 4 weeks) was “lowered the glucose level; also recorded: more significantly lowered by A3334 compared to that by SITA”. Further, the “β-cell and α-cell mass” value in test [2] (IHC insulin and glucagon) was “increased and decreased, respectively, by the A3334 treatment”. Further, the “pancreatic islets / β-cells (insulin, β-catenin, PCNA, Pdx-1)” value in test [2] (histology/IHC) was “restores β-cell mass and functions; also recorded: showed normal islets with insulin secretion and increased expression levels of β-catenin, PCNA, and Pdx-1; also recorded: mostly protected with the A3334 treatment”.
